{"source": "patent US20150273010A1", "about": "(priority 2012, published 2015)", "assay_type_in_all_cases": "cell-based", "key": {"[1]": {"system": "self-inactivating pseudo-typed HIV-1 (sinHIV-GFP)", "assay": "sinHIV-GFP infection screen of SupT1 cells expressing nuclear random peptide library (FACS)", "conditions": "clones isolated after 12 rounds of infection/selection; compared to the mCherry control", "protocol": "A retroviral random peptide library localized to the nucleus, 3XF(GGS)3 NLS RPL, was used to search for novel inhibitors of HIV-1. In order to screen a population of SupT1 expressing this library, a self-inactivating pseudo-typed HIV-1 carrying a pCMV-GFP expression cassette was utilized. The 3XF(GGS)3 NLS RPL SupT1 cells and cells expressing pBMN.i.mCherry were then screened by infection with sinHIV-GFP. 72 hours post-infection, the cells were sorted by Fluorescence Activated Cell Sorting (FACS) based on the expression of GFP, retaining and expanding GFP-negative cells in culture. […] Following 12 rounds of infection, selection of non-fluorescent cells and amplification of the 3XF(GGS)3 NLS RPL expressing SupT1 cells, eight clones were isolated, and expanded in culture."}, "HIV-1 PR [2]": {"molecular_target": "T1, HIV-1 PR (Human immunodeficiency virus type 1 group M subtype B, UniProt P04585)", "conditions": "293T cells, PR/RT cleavage site, added as PI"}, "HIV-1 PR [3]": {"molecular_target": "T1, HIV-1 PR", "source_text": "For that purpose, the well-characterized PR/RT and RT/IN HIV-1 boundaries were introduced between the Gal4 domains."}, "HIV-1 PR [4]": {"molecular_target": "T1, HIV-1 PR", "conditions": "HEK 293T co-transfected with p55 and PR, 48 hours post-transfection, PI present", "description": "Transfected cells were analyzed 48 hours post-transfection with anti-p24 antibody. […] Quantification of the Western blots by IMAGEJ™ (ImageJ™) software. Band intensities are plotted as a ratio of p24 to p55.\nWe performed a biochemical assay to assess PR activity based on its ability to cleave one of its natural substrates—the p55 Gag poly-protein. For this purpose, p96ZM651gag-opt (from the NIH AIDS reagent program) with humanized codons for optimal expression, was used as substrate. Cells were co-transfected with p55 and PR in the presence or absence of Ritonavir as PI. Cells were then analyzed by western blot 48 hours post-transfection with antibodies against HIV p24, capsid (NIH AIDS reagent program)."}, "HIV-1 PR [5]": {"molecular_target": "T1, HIV-1 PR", "conditions": "10 μM; Gal4/PR SupT1 clones, 1 μg/mL Dox"}, "SupT1 cells": {"system": "SupT1 cells", "assay": "Toxicity of PI to cells during the Gal4/library/PR screen", "conditions": "100.M Indinavir, with PR as part of a fusion, time frame required for the screen", "source_text": "The screen starts with the addition of Dox. In alternative embodiments, cells can be non-fluorescent and not contain a Gal4/library fusion protein at all, or they can express a fusion protein cleaved by HIV-1 PR or cellular proteases. Cells expressing a non-cleaved fusion can be fluorescent (FIG. 10A panel a) as they will be able to activate the E2-Crimson reporter. This population is not of interest in this screen. In alternative embodiments, the non-fluorescent population is sorted and expanded (FIG. 10A panel b). In alternative embodiments, cells are then treated again with Dox, but this time in the presence of PI (100.M Indinavir). We have shown that Indinavir at this concentration, and PR as part of a fusion, are not toxic at least for the time frame required for the screen. Only the subpopulation of cells that express a substrate specific for PR should turn fluorescent and thus be E2-Crimson positive (FIG. 10A panel c). In alternative embodiments, this population is sorted and amplified (FIG. 10A panel d) and used to obtain individual clonal populations by growing individual cells in a 96-well format."}}, "data": [{"compound": "Thr Arg Arg Val Ala His Asn Ser Glu (TRRVAHNSE) [Clone 2]", "values": [{"measurement": "decrease in sinHIV-GFP infection rate", "setting": "[1]", "result": "largest decrease"}]}, {"compound": "CC(C)CN(C[C@@H](O)[C@H](Cc1ccccc1)NC(=O)O[C@H]1CO[C@H]2OCC[C@H]21)S(=O)(=O)c1ccc(N)cc1", "note": "[Darunavir, darunavir]", "values": [{"measurement": "reversal of PR-dependent reduction in green fluorescence", "setting": "HIV-1 PR [2]", "result": "the trend was reversed"}, {"measurement": "inhibition of PR-dependent decrease in E2-C fluorescence", "setting": "HIV-1 PR [3]", "result": "strongly inhibited"}]}, {"compound": "CC(C)c1nc(CN(C)C(=O)N[C@H](C(=O)N[C@@H](Cc2ccccc2)C[C@H](O)[C@H](Cc2ccccc2)NC(=O)OCc2cncs2)C(C)C)cs1", "note": "[Ritonavir]", "values": [{"measurement": "p55 Gag poly-protein processing by PR", "setting": "HIV-1 PR [4]", "result": "poly-protein processing is hindered"}]}, {"compound": "Trp Arg Gly Ala Ala Met Val Arg Gly (WRGAAMVRG) [Clone 6]", "values": [{"measurement": "decrease in sinHIV-GFP infection rate", "setting": "[1]", "result": "largest decrease"}]}, {"compound": "CC(C)(C)NC(=O)[C@@H]1CN(Cc2cccnc2)CCN1C[C@@H](O)C[C@@H](Cc1ccccc1)C(=O)N[C@H]1c2ccccc2C[C@H]1O", "note": "[Indinavir]", "values": [{"measurement": "PR inhibition read as GFP induction", "setting": "HIV-1 PR [5]", "result": "inhibited PR, allowing robust GFP induction"}, {"measurement": "toxicity", "setting": "SupT1 cells", "result": "not toxic"}]}]}
